Laboratory results from patent US10662218B2, “Analogs of celastrol” (ERX Pharmaceuticals, Inc., priority 2015, dated 2020).
Values after ≈ are worked out from the molar mass of the structure shown.

Assay: Compound solubility in PBS (pH 7.4), LC-MS/MS
Experimental: • Test concentration: 100 μM (1% of DMSO) • Test systems: PBS (pH 7.4) • Incubation condition: shaken (1000 rpm) for 1 h at room temperature • Sample size: Duplicates (n=2) • Bioanalytical method: LC-MS/MS

[1] = PBS (pH 7.4), pH 7.4, aqueous buffer, kinetic from dmso stock, Solubility (μM) Mean, Table 6-B, test concentration 100 μM (1% of DMSO), shaken (1000 rpm) 1 h at room temperature, n = 2
[2] = PBS (pH 7.4), pH 7.4, aqueous buffer, kinetic from dmso stock, Solubility (μM), Table 6-D
[3] = PBS (pH 7.4), pH 7.4, aqueous buffer, kinetic from dmso stock, Solubility (μM) Mean, Table 6-C, test concentration 100 μM (1% of DMSO), shaken (1000 rpm) 1 h at room temperature, n = 2

Q: Which results are given for `CC(=O)Oc1cc2c(c(C)c1OC(C)=O)C(SC(C)C)C=C1[C@@]2(C)CC[C@@]2(C)[C@@H]3C[C@](C)(CN(C)C)CC[C@]3(C)CC[C@]12C` (stereo partly shown) [ERX1115]?
A: solubility at 1 h [1]: 0.56 µM (≈ 0.349 µg/mL); solubility at 1 h [2]: 0.557 µM (≈ 0.348 µg/mL)

Q: With `CC1=C(O)C(=O)C=C2C1=CC=C1[C@@]2(C)CC[C@@]2(C)[C@@H]3C[C@](C)(CN4CCOCC4)CC[C@]3(C)CC[C@]12C` [ERX1116] as the molecule, how does the solubility at 1 h [1] read?
A: The solubility at 1 h was 0.47 µM (≈ 0.238 µg/mL).

Q: What about the solubility at 1 h [2] of the same molecule?
A: Its solubility at 1 h is 0.47 µM (≈ 0.238 µg/mL).

Q: Which results are given for `CC1=C(O)C(=O)C=C2C1=CC=C1[C@@]2(C)CC[C@@]2(C)[C@@H]3C[C@](C)(CN4CCN(C)CC4)CC[C@]3(C)CC[C@]12C` [ERX1117]?
A: solubility at 1 h [1]: 0.91 µM (≈ 0.472 µg/mL); solubility at 1 h [2]: 0.914 µM (≈ 0.474 µg/mL)

Q: What does the source list for `CCCOC1=C(C)C2=CC=C3[C@@](C)(CC[C@@]4(C)[C@@H]5C[C@](C)(C(N)=O)CC[C@]5(C)CC[C@]34C)C2=CC1=O` [ERX1121]?
A: solubility at 1 h [1]: 1.55 µM (≈ 0.762 µg/mL); solubility at 1 h [2]: 1.55 µM (≈ 0.762 µg/mL)

Q: With `C=CCOC1=C(C)C2=CC=C3[C@@](C)(CC[C@@]4(C)[C@@H]5C[C@](C)(C(N)=O)CC[C@]5(C)CC[C@]34C)C2=CC1=O` [ERX1124] as the molecule, how does the solubility at 1 h [1] read?
A: The solubility at 1 h was 1.04 µM (≈ 0.509 µg/mL).

Q: What about the solubility at 1 h [2] of the same molecule?
A: Its solubility at 1 h is 1.03 µM (≈ 0.507 µg/mL).

Q: For `CC(=O)N[C@]1(C)CC[C@]2(C)CC[C@]3(C)C4=CC(SC(=O)c5ccccc5)c5c(cc(OC(C)=O)c(OC(C)=O)c5C)[C@]4(C)CC[C@@]3(C)[C@@H]2C1` (stereo partly shown) [ERX1173], which solubility at 1 h [3] is on record?
A: Its solubility at 1 h is 1.74 µM (≈ 1.19 µg/mL).

Q: Which solubility at 1 h [1] does the source give for `CC1=C(O)C(=O)C=C2C1=CC=C1[C@@]2(C)CC[C@@]2(C)[C@@H]3C[C@](C)(NS(C)(=O)=O)CC[C@]3(C)CC[C@]12C` [ERX1175] here?
A: The solubility at 1 h was 4.03 µM (≈ 2.01 µg/mL).

Q: What about the solubility at 1 h [2] of the same molecule?
A: The solubility at 1 h was 4.03 µM (≈ 2.01 µg/mL).

Q: Which solubility at 1 h [1] does the source give for `CC(=O)N1CCN(c2ccc(OCC3COC(Cn4ccnc4)(c4ccc(Cl)cc4Cl)O3)cc2)CC1` (stereo not shown) [Ketoconazole] here?
A: Its solubility at 1 h is 35.7 µM (≈ 19 µg/mL).

Q: And the solubility at 1 h [3]?
A: The solubility at 1 h was 35.2 µM (≈ 18.7 µg/mL).

Q: And the solubility at 1 h [2]?
A: Its solubility at 1 h is 35.7 µM (≈ 19 µg/mL).

Q: Which results are given for `CC(C)NCC(O)COc1cccc2ccccc12` (stereo not shown) [Propranolol]?
A: solubility at 1 h (pH 7.4, aqueous buffer, kinetic from dmso stock, Solubility (μM) Mean, Table 6-B; PBS (pH 7.4), test concentration 100 μM (1% of DMSO), shaken (1000 rpm) 1 h at room temperature, n = 2): 97.5 µM (≈ 25.3 µg/mL); solubility at 1 h (pH 7.4, aqueous buffer, kinetic from dmso stock, Solubility (μM) Mean, Table 6-C; PBS (pH 7.4), test concentration 100 μM (1% of DMSO), shaken (1000 rpm) 1 h at room temperature, n = 2): > 100 µM; solubility at 1 h (pH 7.4, aqueous buffer, kinetic from dmso stock, Solubility (μM), Table 6-D; PBS (pH 7.4)): 97.5 µM (≈ 25.3 µg/mL)
